# Results from ChEMBL document CHEMBL3992552, “Mechanisms of action and structure-activity relationships of cytotoxic flavokawain derivatives” (Bioorg Med Chem, 2017).
# The source made the active and inactive calls. No cut-off for these calls is given here.
# Columns and labels:
# Huh-7 [1] = experiment: Cell cycle arrest in human HuH7 cells assessed as accumulation at S phase at 10 uM measured after 48 hrs by Hoechst/BrdU staining based fluorescence assay (reference value: 44%); assay type: functional
# PC-3 [2] = experiment: Cell cycle arrest in human PC3 cells harboring p53 mutant assessed as accumulation at S phase at 25 uM measured after 48 hrs by Hoechst/BrdU staining based fluorescence assay (reference value: 40.8%); assay type: functional
# MDA-MB-231 [3] = experiment: Cytotoxicity against human MDA-MB-231 cells assessed as cell viability after 48 hrs by Hoechst 33342 staining based assay; assay type: functional; settings: MDA-MB-231, 48 h
# HCT-116 [4] = experiment: Cell cycle arrest in human HCT116 cells harboring wild-type p53 assessed as accumulation at S phase at 25 uM measured after 48 hrs by Hoechst/BrdU staining based fluorescence assay (reference value: 68%); assay type: functional
# HCT-116 [5] = experiment: Cell cycle arrest in human HCT116 cells harboring wild-type p53 assessed as accumulation at M phase at 50 uM measured after 48 hrs by Hoechst staining based fluorescence assay (reference value: 2.3 to […]); assay type: functional
# Huh-7 [6] = experiment: Cell cycle arrest in human HuH7 cells assessed as accumulation at S phase at 25 uM measured after 48 hrs by Hoechst/BrdU staining based fluorescence assay (reference value: 44%); assay type: functional
# HCT-116 [7] = experiment: Cell cycle arrest in human HCT116 cells harboring wild-type p53 assessed as accumulation at S phase at 50 uM measured after 48 hrs by Hoechst/BrdU staining based fluorescence assay (reference value: 68%); assay type: functional
# HCT-116 [8] = experiment: Cell cycle arrest in human HCT116 cells harboring wild-type p53 assessed as accumulation at S phase at 10 uM measured after 48 hrs by Hoechst/BrdU staining based fluorescence assay (reference value: 68.4%); assay type: functional
# NCI-H727 [9] = experiment: Cell cycle arrest in human NCI-H727 cells harboring p53 mutant assessed as accumulation at S phase at 25 uM measured after 48 hrs by Hoechst/BrdU staining based fluorescence assay (reference value: 40.3%); assay type: functional
# MDA-MB-231 [10] = experiment: Cell cycle arrest in human MDA-MB-231 cells harboring p53 mutant assessed as accumulation at S phase at 10 uM measured after 48 hrs by Hoechst/BrdU staining based fluorescence assay (reference value: 42.2%); assay type: functional
# HCT-116 [11] = experiment: Cell cycle arrest in human HCT116 cells harboring wild-type p53 assessed as accumulation at S phase at 25 uM measured after 48 hrs by Hoechst/BrdU staining based fluorescence assay (reference value: 68.4%); assay type: functional
# MDA-MB-231 [12] = experiment: Cell cycle arrest in human MDA-MB-231 cells harboring p53 mutant assessed as accumulation at S phase at 25 uM measured after 48 hrs by Hoechst/BrdU staining based fluorescence assay (reference value: 42.2%); assay type: functional
# MDA-MB-231 [13] = experiment: Cell cycle arrest in human MDA-MB-231 cells assessed as accumulation at G1/S phase by Hoechst staining based fluorescence assay; assay type: functional
# MCF7 = experiment: Cytotoxicity against human MCF7 assessed as cell viability after 48 hrs by Hoechst 33342 staining based assay; assay type: functional; settings: MCF7, 48 h
# HaCaT [14] = experiment: Cell cycle arrest in human HaCaT cells harboring […] p53 assessed as accumulation at S phase at 10 uM measured after 48 hrs by Hoechst/BrdU staining based fluorescence assay (reference value: 52.3%); assay type: functional
# Huh-7 [15] = experiment: Cell cycle arrest in human HuH7 cells assessed as accumulation at G1/S phase by Hoechst staining based fluorescence assay; assay type: functional
# NCI-H727 [16] = experiment: Cytotoxicity against human NCI-H727 cells assessed as cell viability after 48 hrs by Hoechst 33342 staining based assay; assay type: functional; settings: NCI-H727, 48 h
# RL = experiment: Cytotoxicity against human RL assessed as cell viability after 48 hrs by Hoechst 33342 staining based assay; assay type: functional
# NCI-H727 [17] = experiment: Cell cycle arrest in human NCI-H727 cells harboring p53 mutant assessed as accumulation at S phase at 10 uM measured after 48 hrs by Hoechst/BrdU staining based fluorescence assay (reference value: 40.3%); assay type: functional
# PC-3 [18] = experiment: Cell cycle arrest in human PC3 cells harboring p53 mutant assessed as accumulation at S phase at 10 uM measured after 48 hrs by Hoechst/BrdU staining based fluorescence assay (reference value: 40.8%); assay type: functional
# NCI-H727 [19] = experiment: Cell cycle arrest in human NCI-H727 cells harboring p53 mutant assessed as mitotic index at 10 uM measured after 48 hrs by Hoechst staining based fluorescence assay (reference value: 1.1); assay type: functional
# HaCaT [20] = experiment: Cell cycle arrest in human HaCaT cells harboring […] p53 assessed as accumulation at S phase at 25 uM measured after 48 hrs by Hoechst/BrdU staining based fluorescence assay (reference value: 52.3%); assay type: functional
# HaCaT [21] = experiment: Cell cycle arrest in human HaCaT cells assessed as accumulation at G1/S phase by Hoechst staining based fluorescence assay; assay type: functional
# PC-3 [22] = experiment: Cell cycle arrest in human PC3 cells assessed as accumulation at G2/M phase by Hoechst staining based fluorescence assay; assay type: functional
# HCT-116 [23] = experiment: Cell cycle arrest in human HCT116 cells harboring wild-type p53 assessed as accumulation at M phase at 25 uM measured after 48 hrs by Hoechst staining based fluorescence assay (reference value: 2.3 to […]); assay type: functional
# PC-3 [24] = experiment: Cytotoxicity against human PC3 cells assessed as cell viability after 48 hrs by Hoechst 33342 staining based assay; assay type: functional; settings: PC-3, 48 h
# Fibroblast = experiment: Cytotoxicity against human fibroblasts assessed as cell viability after 48 hrs by Hoechst 33342 staining based assay
# NCI-H727 [25] = experiment: Cell cycle arrest in human NCI-H727 cells harboring p53 mutant assessed as mitotic index at 25 uM measured after 48 hrs by Hoechst staining based fluorescence assay (reference value: 1.1); assay type: functional
# Huh-7 [26] = experiment: Cytotoxicity against human HuH7 cells assessed as cell viability after 48 hrs by Hoechst 33342 staining based assay; assay type: functional; settings: Huh-7, 48 h
# HaCaT [27] = experiment: Cytotoxicity against human HaCaT cells assessed as cell viability after 48 hrs by Hoechst 33342 staining based assay; assay type: functional
# HCT-116 [28] = experiment: Cell cycle arrest in human HCT116 cells assessed as accumulation at G1/S phase by Hoechst staining based fluorescence assay; assay type: functional
# MDA-MB-231 [29] = experiment: Cell cycle arrest in human MDA-MB-231 cells harboring p53 mutant assessed as mitotic index at 10 uM measured after 48 hrs by Hoechst staining based fluorescence assay (reference value: 2.1); assay type: functional
# [30] = Selectivity index, ratio of IC50 for human fibroblasts to IC50 for human HCT116 cells
# Caco-2 [31] = experiment: Cell cycle arrest in human Caco2 cells assessed as mitotic index at 10 uM measured after 48 hrs by Hoechst staining based fluorescence assay (reference value: 3.6); assay type: functional
# Caco-2 [32] = experiment: Cell cycle arrest in human Caco2 cells assessed as mitotic index at 25 uM measured after 48 hrs by Hoechst staining based fluorescence assay (reference value: 3.6); assay type: functional
# MDA-MB-231 [33] = experiment: Cell cycle arrest in human MDA-MB-231 cells harboring p53 mutant assessed as mitotic index at 25 uM measured after 48 hrs by Hoechst staining based fluorescence assay (reference value: 2.1); assay type: functional
# [34] = Selectivity index, ratio of IC50 for human fibroblasts to IC50 for human MCF7 cells
# [35] = Selectivity index, ratio of IC50 for human fibroblasts to IC50 for human Caco2 cells
# PC-3 [36] = experiment: Cell cycle arrest in human PC3 cells harboring p53 mutant assessed as mitotic index at 25 uM measured after 48 hrs by Hoechst staining based fluorescence assay (reference value: 2.5); assay type: functional
# Caco-2 [37] = experiment: Cytotoxicity against human Caco2 cells assessed as cell viability after 48 hrs by Hoechst 33342 staining based assay; assay type: functional; settings: Caco-2, 48 h
# Caco-2 [38] = experiment: Cell cycle arrest in human Caco2 cells assessed as accumulation at S phase at 10 uM measured after 48 hrs by Hoechst/BrdU staining based fluorescence assay (reference value: […]); assay type: functional
# HCT-116 [39] = experiment: Cell cycle arrest in human HCT116 cells harboring wild-type p53 assessed as mitotic index at 10 uM measured after 48 hrs by Hoechst staining based fluorescence assay (reference value: 2.3); assay type: functional
# HCT-116 [40] = experiment: Cell cycle arrest in human HCT116 cells assessed as accumulation at G2/M phase by Hoechst staining based fluorescence assay; assay type: functional
# [41] = Selectivity index, ratio of IC50 for human fibroblasts to IC50 for human RL cells
# [42] = Selectivity index, ratio of IC50 for human fibroblasts to IC50 for human HaCaT cells
# PC-3 [43] = experiment: Cell cycle arrest in human PC3 cells harboring p53 mutant assessed as mitotic index at 10 uM measured after 48 hrs by Hoechst staining based fluorescence assay (reference value: 2.5); assay type: functional
# HaCaT [44] = experiment: Cell cycle arrest in human HaCaT cells harboring […] p53 assessed as mitotic index at 25 uM measured after 48 hrs by Hoechst staining based fluorescence assay (reference value: 2.6); assay type: functional
# Huh-7 [45] = experiment: Cell cycle arrest in human HuH7 cells assessed as mitotic index at 25 uM measured after 48 hrs by Hoechst staining based fluorescence assay (reference value: 2.2); assay type: functional
# PC-3 [46] = experiment: Cell cycle arrest in human PC3 cells assessed as accumulation at G1/S phase by Hoechst staining based fluorescence assay; assay type: functional
# Huh-7 [47] = experiment: Cell cycle arrest in human HuH7 cells assessed as mitotic index at 10 uM measured after 48 hrs by Hoechst staining based fluorescence assay (reference value: 2.2); assay type: functional
# HaCaT [48] = experiment: Cell cycle arrest in human HaCaT cells harboring […] p53 assessed as mitotic index at 10 uM measured after 48 hrs by Hoechst staining based fluorescence assay (reference value: 2.6); assay type: functional
# [49] = Selectivity index, ratio of IC50 for human fibroblasts to IC50 for human PC3 cells
# HCT-116 [50] = experiment: Cytotoxicity against human HCT116 cells assessed as cell viability after 48 hrs by Hoechst 33342 staining based assay; assay type: functional; settings: HCT-116, 48 h
# HCT-116 [51] = experiment: Cell cycle arrest in human HCT116 cells harboring wild-type p53 assessed as mitotic index at 25 uM measured after 48 hrs by Hoechst staining based fluorescence assay (reference value: 2.3); assay type: functional
# Caco-2 [52] = experiment: Cell cycle arrest in human Caco2 cells assessed as accumulation at S phase at 25 uM measured after 48 hrs by Hoechst/BrdU staining based fluorescence assay (reference value: […]); assay type: functional
smiles,measurement,setting,value
CC[C@H](CO)Nc1nc(NCc2ccccc2)c2ncn(C(C)C)c2n1 [SELICICLIB],Activity,Huh-7 [1],16%
same,Activity,PC-3 [2],38%
same,IC50,MDA-MB-231 [3],16.8 µM
same,Activity,HCT-116 [4],25%
same,Activity,HCT-116 [5],0.6%
same,Activity,Huh-7 [6],9%
same,Activity,HCT-116 [7],17%
same,Activity,HCT-116 [8],25%
same,Activity,NCI-H727 [9],inactive
same,Activity,MDA-MB-231 [10],27%
same,Activity,HCT-116 [11],17%
same,Activity,MDA-MB-231 [12],25%
same,Activity,MDA-MB-231 [13],Active
same,IC50,MCF7,10.2 µM
same,Activity,HaCaT [14],26%
same,Activity,Huh-7 [15],Active
same,IC50,NCI-H727 [16],> 20 µM
same,IC50,RL,0.9 µM
same,Activity,NCI-H727 [17],inactive
same,Activity,PC-3 [18],17%
same,Activity,NCI-H727 [19],inactive
same,Activity,HaCaT [20],3%
same,Activity,HaCaT [21],Active
same,Activity,PC-3 [22],Active
same,Activity,HCT-116 [23],1.2%
same,IC50,PC-3 [24],16.5 µM
same,IC50,Fibroblast,> 20 µM
same,Activity,NCI-H727 [25],inactive
same,IC50,Huh-7 [26],15.4 µM
same,IC50,HaCaT [27],16.7 µM
same,Activity,HCT-116 [28],Active
Oc1cccc(-c2nc(N3CCOCC3)c3oc4ncccc4c3n2)c1 [PI-103],Activity,MDA-MB-231 [29],inactive
same,Activity,Huh-7 [1],inactive
same,Activity,PC-3 [2],1.2%
same,IC50,MDA-MB-231 [3],> 20 µM
same,Activity,Huh-7 [6],inactive
same,Ratio IC50,[30],>6.4
same,Activity_index,Caco-2 [31],1.4
same,Activity_index,Caco-2 [32],0.9
same,Activity,MDA-MB-231 [33],inactive
same,Activity,HCT-116 [8],63%
same,Activity,NCI-H727 [9],inactive
same,Ratio IC50,[34],>1.9
same,Ratio IC50,[35],>12.5
same,Activity_index,PC-3 [36],0.1
same,Activity,MDA-MB-231 [10],inactive
same,IC50,Caco-2 [37],2 µM
same,Activity,Caco-2 [38],28%
same,Activity_index,HCT-116 [39],1.9
same,Activity,HCT-116 [40],Active
same,Ratio IC50,[41],>8.6
same,Activity,HCT-116 [11],63%
same,Activity,MDA-MB-231 [12],inactive
same,Ratio IC50,[42],>7.1
same,Activity_index,PC-3 [43],0.4
same,IC50,MCF7,13.3 µM
same,Activity_index,HaCaT [44],0.5
same,Activity,HaCaT [14],20%
same,IC50,NCI-H727 [16],> 20 µM
same,IC50,RL,2.9 µM
same,Activity,NCI-H727 [17],inactive
same,Activity,PC-3 [18],6%
same,Activity,NCI-H727 [19],inactive
same,Activity,HaCaT [20],12%
same,Activity,HaCaT [21],Active
same,Activity,Huh-7 [45],inactive
same,Activity,PC-3 [46],Active
same,IC50,PC-3 [24],7.6 µM
same,Activity,Huh-7 [47],inactive
same,IC50,Fibroblast,> 20 µM
same,Activity_index,HaCaT [48],0.9
same,Ratio IC50,[49],>3.3
same,Activity,NCI-H727 [25],inactive
same,IC50,HCT-116 [50],3.9 µM
same,IC50,Huh-7 [26],> 20 µM
same,IC50,HaCaT [27],3.5 µM
same,Activity_index,HCT-116 [51],1.8
same,Activity,Caco-2 [52],20%
